Columns and labels:
Format in all cases: biochemical
thrombin = target: T1, thrombin (Homo sapiens, UniProt P00734); assay: Determination of selectivity: thrombin inhibition, chromogenic substrate GPR assay; conditions: fold selectivity for FXIIa over thrombin
T1 construct: FXa (5 nM) and thrombin (5 nM)
Outline: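 Thrombin (5 nM) preincubated with compound 10 min at 37 °C in 50 mM Tris, 137 mM NaCl, pH 7.4, 5% DMSO, then GPR substrate ([…]) added. Absorbance at 405 nm read kinetically for 3 h; IC50 from initial rates, converted to Ki via Ki=IC50/(1+[S]/Km).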

FXa = FXa (Homo sapiens, UniProt P00742); assay: Determination of selectivity: FXa inhibition, chromogenic substrate S2765 assay; conditions: fold selectivity for FXIIa over FXa
Outline: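 Human FXa (5 nM) preincubated with compound (top 500 μM, 5% DMSO) 10 min at 37 °C in 50 mM Tris, 137 mM NaCl pH 7.4, then S2765 ([…]) added; A405 kinetics over 3 h at 37 °C. IC50 from initial rates, converted to Ki via Cheng-Prusoff.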

FXIIa = target: T2, FXIIa (Homo sapiens, UniProt P00748); assay: Determination of Factor XIIa inhibition, chromogenic substrate S-2302 assay; conditions: human FXIIa alpha
T2 sequence (P00748 373-615 limits assumed): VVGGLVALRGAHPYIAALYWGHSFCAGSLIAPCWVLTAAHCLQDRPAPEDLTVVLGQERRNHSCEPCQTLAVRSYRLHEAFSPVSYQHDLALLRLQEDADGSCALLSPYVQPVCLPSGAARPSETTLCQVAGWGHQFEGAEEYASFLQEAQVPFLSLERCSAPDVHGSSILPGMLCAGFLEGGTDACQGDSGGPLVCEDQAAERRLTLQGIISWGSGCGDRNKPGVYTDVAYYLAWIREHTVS
T2 sequence (P00748 20-372 partner limits assumed): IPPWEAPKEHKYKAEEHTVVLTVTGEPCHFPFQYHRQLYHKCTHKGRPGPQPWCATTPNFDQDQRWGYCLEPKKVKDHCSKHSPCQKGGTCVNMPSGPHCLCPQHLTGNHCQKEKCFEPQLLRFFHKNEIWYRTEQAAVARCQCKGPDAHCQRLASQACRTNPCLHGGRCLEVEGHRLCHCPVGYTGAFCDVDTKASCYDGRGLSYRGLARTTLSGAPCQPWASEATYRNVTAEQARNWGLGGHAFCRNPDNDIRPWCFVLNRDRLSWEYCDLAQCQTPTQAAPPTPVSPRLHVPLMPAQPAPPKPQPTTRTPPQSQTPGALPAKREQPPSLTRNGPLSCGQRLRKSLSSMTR
Outline: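 FXIIa (10 nM) preincubated with compound 10 min at 37° C. in 50 mM Tris, 137 mM NaCl pH 7.4, 5% DMSO, top concentration 500 μM, then S-2302 added ([…]). Absorbance at 405 nm read kinetically for 3 h; IC50 from initial rates, converted to Ki by Cheng-Prusoff.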

Chain of FXa (P00742 235-488 limits assumed): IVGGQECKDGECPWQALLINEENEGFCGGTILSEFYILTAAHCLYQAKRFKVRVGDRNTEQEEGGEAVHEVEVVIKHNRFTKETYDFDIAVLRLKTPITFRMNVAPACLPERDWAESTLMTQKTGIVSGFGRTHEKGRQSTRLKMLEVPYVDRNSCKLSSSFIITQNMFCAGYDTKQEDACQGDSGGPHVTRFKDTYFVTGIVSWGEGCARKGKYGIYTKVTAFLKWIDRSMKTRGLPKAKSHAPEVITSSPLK
Chain of FXa (P00742 41-179 partner limits assumed): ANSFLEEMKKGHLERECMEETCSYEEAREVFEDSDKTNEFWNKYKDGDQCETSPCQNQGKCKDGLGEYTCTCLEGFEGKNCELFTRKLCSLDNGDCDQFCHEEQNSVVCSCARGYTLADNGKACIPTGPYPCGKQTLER

Row | SMILES | Thrombin (human)/FXIIa alpha (human) (thrombin) | FXa (human)/FXIIa alpha (human) (FXa) | Ki (FXIIa) [nM]
1 | COc1ccc(C[C@@H]2C[C@@H](C(=O)NCc3ccc4c(c3)nnn4C)N(C(=O)[C@H]3CC(c4c[nH]cn4)CN3)C2)cc1 (stereo partly drawn) [Example M05464] | ++ (fold selectivity value of 10 to 100) | ∘∘ | > 2000
2 | CN(C)[C@H](CCC(=O)N1CCCC1)C(=O)N1C[C@H](Cc2cccnc2)C[C@H]1C(=O)NCc1ccc2c(c1)c(Cl)nn2C [Example M05219] | +++ (fold selectivity values greater than 100) | ∘∘∘ | < 200
3 | Cn1nccc1-c1cccc(C[C@@H]2C[C@@H](C(=O)NCc3ccc4c(c3)nnn4C)N(C(=O)[C@H](N)CCC(=O)N3CCCC3)C2)c1 [Example M05350, (2S,4R)-1-((R)-2-Amino-5-oxo-5-pyrrolidin-1-yl-pentanoyl)-4-[3-(2-methyl-2H-pyrazol-3-yl)-benzyl]-pyrrolidine-2-carboxylic acid (1-methyl-1H-benzotriazol-5-ylmethyl)-amide] | +++ (fold selectivity values greater than 100) | ∘∘∘ | 200 to 2000
4 | COc1ccc(C[C@@H]2C[C@@H](C(=O)NCc3ccc4c(c3)nnn4C)N(C(=O)[C@H]3C[C@@H](c4cnn(C)c4)CN3C)C2)cc1 [Example M05474, (2S,4R)-4-(4-Methoxy-benzyl)-1-[(2R,4S)-1-methyl-4-(1-methyl-1H-pyrazol-4-yl)-pyrrolidine-2-carbonyl]-pyrrolidine-2-carboxylic acid (1-methyl-1H-benzotriazol-5-ylmethyl)-amide] | +++ (fold selectivity values greater than 100) | ∘∘∘ | 200 to 2000
5 | COc1cncc(CC2C[C@@H](C(=O)NCc3ccc4c(c3)nnn4C)N(C(=O)[C@H](N)CCC(=O)N3CCCC3)C2)c1 (stereo partly drawn) [Example M05304] | +++ (fold selectivity values greater than 100) | ∘∘∘ | 200 to 2000
6 | NCc1ccc(CNC(=O)[C@@H]2C[C@H](O)CN2C(=O)[C@H](N)CCc2ccccc2)cc1 [Example M00626] | ++ (fold selectivity value of 10 to 100) | ∘∘ | > 2000
7 | CCOc1ccc(C[C@@H]2C[C@@H](C(=O)NCc3ccc4c(c3)nnn4C)N(C(=O)[C@H]3C[C@@H](c4ccccc4)CN3)C2)cc1 [Example M05382] | +++ (fold selectivity values greater than 100) | ∘∘∘ | 200 to 2000
8 | NCc1ccc(CNC(=O)[C@@H]2C[C@H](C3CCCCC3)CN2C(=O)[C@H](N)CCc2ccccc2)cc1 [Example M05076, (2S,4R)-1-((R)-2-Amino-4-phenyl-butyryl)-4-cyclohexyl-pyrrolidine-2-carboxylic acid 4-aminomethyl-benzylamide] | ++ (fold selectivity value of 10 to 100) | ∘∘ | > 2000
9 | COc1cccc(CC2C[C@@H](C(=O)NCc3ccc4c(c3)nnn4C)N(C(=O)[C@H](N)CCC(=O)N3CCCC3)C2)c1 (stereo partly drawn) [Example M05300] | +++ (fold selectivity values greater than 100) | ∘∘∘ | 200 to 2000
10 | COc1ccc(C[C@@H]2C[C@@H](C(=O)NCc3ccc4c(c3)nnn4C)N(C(=O)[C@H](N)CCC(=O)N3C4CCC3CNC4)C2)cc1 [Example M05420] | +++ (fold selectivity values greater than 100) | ∘∘∘ | < 200
11 | NCc1ccc(CNC(=O)[C@@H]2C[C@@H](Cc3cccc(Cl)c3)CN2C(=O)[C@H](N)CCc2ccccc2)cc1 [Example M05130] | ++ (fold selectivity value of 10 to 100) | ∘∘∘ | 200 to 2000
12 | Cn1nnc2cc(CNC(=O)[C@@H]3C[C@H](C(F)(F)F)CN3C(=O)[C@H]3C[C@@H](c4ccccc4)CN3)ccc21 [Example M05280] | ++ (fold selectivity value of 10 to 100) | ∘∘ | > 2000
13 | Cn1nnc2cc(CNC(=O)[C@@H]3C[C@H](CC4CCOCC4)CN3C(=O)[C@H](N)CCC(=O)N3CCCC3)ccc21 [Example M05293] | ++ (fold selectivity value of 10 to 100) | ∘∘ | > 2000
14 | CN(C1CCCCC1)C1C[C@@H](C(=O)NCc2ccc3c(c2)nnn3C)N(C(=O)[C@H](N)CCc2ccccc2)C1 (stereo partly drawn) [Example M05242] | ++ (fold selectivity value of 10 to 100) | ∘∘ | > 2000
15 | NCc1ccc(CNC(=O)[C@@H]2CCCN2C(=O)[C@H](N)CCC(=O)N2CC=CC2)cc1 [Example M00922] | + (fold selectivity values less than 10) | ∘∘ | > 2000
16 | Cn1nnc2cc(CNC(=O)[C@@H]3C[C@@H](Cc4ccncc4)CN3C(=O)[C@H]3C[C@@H](c4ccccc4)CN3)ccc21 [Example M05288] | ++ (fold selectivity value of 10 to 100) | ∘∘∘ | > 2000
17 | Cn1nnc2cc(CNC(=O)[C@@H]3C[C@@H](Cc4ccncc4)CN3C(=O)[C@@H](CCC(=O)N3CCCC3)NC(=O)Cc3ccccc3)ccc21 [Example M05267, (2S,4R)-1-((R)-5-Oxo-2-phenylacetylamino-5-pyrrolidin-1-yl-pentanoyl)-4-pyridin-4-ylmethyl-pyrrolidine-2-carboxylic acid (1-methyl-1H-benzotriazol-5-ylmethyl)-amide] | ++ (fold selectivity value of 10 to 100) | ∘∘ | > 2000
18 | COc1ccc(C[C@@H]2C[C@@H](C(=O)NCc3ccc4c(c3)nnn4C)N(C(=O)[C@H](N)CCC(=O)N3CCC[C@@H]3C(C)C)C2)cc1 [Example M05412] | +++ (fold selectivity values greater than 100) | ∘∘∘ | < 200
19 | COc1ccc(CC2C[C@@H](C(=O)NCc3ccc4c(c3)nnn4C)N(C(=O)[C@H]3C[C@@H](c4ccccc4)CN3)C2)cc1OC (stereo partly drawn) [Example M05348] | +++ (fold selectivity values greater than 100) | ∘∘∘ | 200 to 2000
20 | Cn1nnc2cc(CNC(=O)[C@@H]3C[C@@H](Cc4ccccc4C(F)(F)F)CN3C(=O)[C@H]3C[C@@H](c4ccccc4)CN3)ccc21 [Example M05357] | ++ (fold selectivity value of 10 to 100) | ∘∘ | > 2000
21 | COc1ccc(C[C@@H]2C[C@@H](C(=O)NCc3ccc4c(c3)nnn4C)N(C(=O)[C@H](N)CCC(=O)N3CCNC[C@H]3C)C2)cc1 [Example M05443] | +++ (fold selectivity values greater than 100) | ∘∘∘ | 200 to 2000
22 | Cn1nnc2cc(CNC(=O)[C@@H]3C[C@H](NCc4ccccc4)CN3C(=O)[C@H](N)CCc3ccccc3)ccc21 [Example M05158] | ++ (fold selectivity value of 10 to 100) | ∘∘ | > 2000
23 | Cn1nnc2cc(CNC(=O)[C@@H]3C[C@H](Cc4ccccn4)CN3C(=O)[C@H](N)CCC(=O)N3CCCC3)ccc21 [Example M05296] | +++ (fold selectivity values greater than 100) | ∘∘∘ | 200 to 2000
24 | COc1ccc(C[C@@H]2C[C@@H](C(=O)NCc3ccc4c(c3)nnn4C)N(C(=O)[C@H]3C[C@@H](c4cccnc4)CN3)C2)cc1 [Example M05354] | +++ (fold selectivity values greater than 100) | ∘∘∘ | 200 to 2000
25 | Nc1nccc2cc(CNC(=O)[C@@H]3C[C@H](C(F)(F)F)CN3C(=O)[C@H](N)CCC(=O)N3CCCC3)ccc12 [Example M05265] | + (fold selectivity values less than 10) | ∘ | 200 to 2000
26 | Cn1nnc2cc(CNC(=O)[C@@H]3C[C@@H](Cc4cccc(F)c4)CN3C(=O)[C@H]3C[C@@H](c4ccccc4)CN3)ccc21 [Example M05327] | ++ (fold selectivity value of 10 to 100) | ∘ | > 2000

From patent US12336991B2, “Factor XIIA inhibitors” (UNIVERSITY OF LEEDS, priority 2018, dated 2025)
